In patent US20060211073A1, “Assay for B-Raf activity based on intrinsic MEK ATPase activity” (priority 2005, published 2006):
pIC50: −log10 of the molar value.

Molecular target: T1, phosphoMEK (activated MEK-1) (Homo sapiens, UniProt Q02750)
T1 construct: purchased Upstate (Waltham, Mass.) #14-429, lot #26232U
Test: ATPase activity of commercially acquired phosphoMEK in the absence of B-Raf
Assay type: biochemical
Details: data not shown

T1 sequence (Q02750 whole entry): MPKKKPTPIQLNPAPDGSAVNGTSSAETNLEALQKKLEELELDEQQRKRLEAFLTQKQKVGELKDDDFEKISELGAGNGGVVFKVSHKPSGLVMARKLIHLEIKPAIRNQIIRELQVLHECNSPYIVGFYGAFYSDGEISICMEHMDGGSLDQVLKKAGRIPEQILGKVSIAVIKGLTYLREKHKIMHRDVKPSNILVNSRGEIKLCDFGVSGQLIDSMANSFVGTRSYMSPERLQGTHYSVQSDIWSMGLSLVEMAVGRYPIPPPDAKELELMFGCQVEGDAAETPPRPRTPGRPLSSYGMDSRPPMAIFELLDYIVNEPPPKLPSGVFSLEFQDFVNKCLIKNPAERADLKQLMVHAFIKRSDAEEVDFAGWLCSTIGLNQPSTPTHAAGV

pIC50: < 5.00
Structure (SMILES): CN(C)CCOc1ccc(-c2nc(-c3ccncc3)c(-c3ccc4c(c3)CC/C4=N\O)[nH]2)cc1 [SB-590885]
